We go through 2 compounds from US12162878B2 (HINOVA PHARMACEUTICALS INC., priority 2018, dated 2024).

What all share (type): cell-based, human
Assay [1] relates to CWR22RV1 cells. The assay is described as follows: Inhibition of proliferation of CWR22RV1 cells (CCK-8). The conditions noted are these: Homo sapiens, CWR22Rv1, 144 h, 6 days. A digest of the protocol: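 Cells seeded at 1500/well, cultured overnight, then exposed to compounds in 3-fold dilutions (9 concentrations from 10 μM top final, 0.1% DMSO) for 6 days at 37 °C. Viability read by CCK-8 absorbance at 450 nm after 2.5 h; IC50 from dose-response inhibition fit.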

The next assay deals with MCF-7 cells. Nature of the assay: Inhibition of proliferation of MCF-7 cells (CCK-8). On the procedure: • MCF-7 cell line (Cell Bank of Chinese Academy of Sciences, TCHu74) • FBS (Gibco, Cat. No. 10099-141) • 0.01M PBS (Biosharp, Cat. No. 162262) • RIPM1640 (Hyclone, Cat. No. 308090.01) • Penicillin-Streptomycin (Hyclone, Cat. No. SV30010) • Cell counting kit-8 (Signalway Antibody, Cat. No. CP002) • DMSO (Sigma, Cat. No. D5879) • Centrifuge Tube, 15 ml (Excell Bio, Cat. No. CS015-0001) • Cell Culture Dish, (Excell Bio, Cat. No. CS016-0128) • 96-well cell culture cluster (Corning, Cat. No. 3599) 3. Experimental Method
1) MCF-7 cells were subcultured in cell culture media, and the cells in good growth condition were seeded in a 96-well plate, 80 μL for each well, thus the number of cells per well was 1000, then the plate was cultured overnight in a 37° C., 5% CO2 cell incubator.
(§1) 2) The drug was prepared with dimethyl sulfoxide (DMSO) as a 10 mM stock solution. Prior to use, the solution was diluted 3 times with DMSO, and then diluted with a 3-fold gradient to obtain 9 concentration gradients. Then, each concentration of the compound was further diluted 200 times with the culture media (to ensure that DMSO concentration in the culture system was 0.1%), 2 repeat wells for each concentration. The diluted solution of each compound (20 μL) was added to the cell culture well (with a final concentration of 10 μM, 3.3 μM, 1.1 μM . . . ), and shaken gently for mixing.
In addition, three negative control wells containing only cells and three blank control wells containing only culture medium (20 μL DMSO diluted 200 times with culture medium being added to six wells) were included.
(§2) (1) After culturing for 6 days, 10 μL CCK-8 was added to each well and cultured for additional 2.5 h in a 37° C., 5% CO2 cell incubator.
(§3) (2) The absorbance (OD value) at 450 nm was measured with a multifunctional microplate reader.
(§4) (3) The data was analyzed by the Dose-response-inhibition equation in the software GraphPad Prism6, and the IC50 value was obtained.

The test system of a further assay is MDA-MB-231 cells. Nature of the assay: Inhibition of proliferation of MDA-MB-231 cells (CCK-8). As for the experimental part:
• MDA-MB-231 cell line (Cell Bank of Chinese Academy of Sciences, TCHu104) • FBS (Gibco, Cat. No. 10099-141) • 0.01M PBS (Biosharp, Cat. No. 162262) • RIPM1640 (Hyclone, Cat. No. 308090.01) • Penicillin-Streptomycin (Hyclone, Cat. No. SV30010) • Cell counting kit-8 (Signalway Antibody, Cat. No. CP002) • DMSO (Sigma, Cat. No. D5879) • Centrifuge Tube, 15 ml (Excell Bio, Cat. No. CS015-0001) • Cell Culture Dish, (Excell Bio, Cat. No. CS016-0128) • 96-well cell culture cluster (Corning, Cat. No. 3599) 3. Experimental Method
1) MDA-MB-231 cells were subcultured in cell culture media, and the cells in good growth condition were seeded in a 96-well plate, 80 μL for each well, thus the number of cells per well was 1500, then the plate was cultured overnight in a 37° C., 5% CO2 cell incubator.
as §1, with “mixing. In addition, three negative control wells containing only cells and three blank control wells containing only culture medium (20 μL DMSO diluted 200 times with culture medium being added to six wells) were included.” for “mixing.”
as §2, §3, §4

The next assay deals with MDA-MB-453 cells. Nature of the assay: Inhibition of proliferation of MDA-MB-453 cells (CCK-8). The conditions noted are these: Homo sapiens, 144 h, 6 days, CCK-8. On the procedure:
• MDA-MB-453 cell line (Cell Bank of Chinese Academy of Sciences, TCHu35) • FBS (Gibco, Cat. No. 10099-141) • 0.01M PBS (Biosharp, Cat. No. 162262) • RIPM1640 (Hyclone, Cat. No. 308090.01) • Penicillin-Streptomycin (Hyclone, Cat. No. SV30010) • Cell counting kit-8 (Signalway Antibody, Cat. No. CP002) • DMSO (Sigma, Cat. No. D5879) • Centrifuge Tube, 15 ml (Excell Bio, Cat. No. CS015-0001) • Cell Culture Dish, (Excell Bio, Cat. No. CS016-0128) • 96-well cell culture cluster (Corning, Cat. No. 3599) 3. Experimental Method
1) MDA-MB-453 cells were subcultured in cell culture media, and the cells in good growth condition were seeded in a 96-well plate, 80 μL for each well, thus the number of cells per well was 1500, then the plate was cultured overnight in a 37° C., 5% CO2 cell incubator.
as §1, with “mixing. In addition, three negative control wells containing only cells and three blank control wells containing only culture medium (20 μL DMSO diluted 200 times with culture medium being added to six wells) were included.” for “mixing.”
as §2, §3, §4

Assay [2] has as its system Vcap cells. The assay is described as follows: Inhibition of proliferation of Vcap cells (CCK-8). As for the experimental part: • Vcap cell line (Cell Bank of Chinese Academy of Sciences, TCHu220) • FBS (Gibco, Cat. No. 10099-141) • 0.01M PBS (Biosharp, Cat. No. 162262) • DMEM HIGH Glucose (Hyclone, Cat. No. SH30243.01) • Penicillin-Streptomycin (Hyclone, Cat. No. SV30010) • Cell counting kit-8 (Signalway Antibody, Cat. No. CP002) • DMSO (Sigma, Cat. No. D5879) • Centrifuge Tube, 15 ml (Excell Bio, Cat. No. CS015-0001) • Cell Culture Dish, (Excell Bio, Cat. No. CS016-0128) • 96-well cell culture cluster (Corning, Cat. No. 3599) 2. Experimental Method
1) Vcap cells were subcultured in cell culture media, and the cells in good growth condition were seeded in a 96-well plate, 80 μL for each well, thus the number of cells per well was 10000, then the plate was cultured overnight in a 37° C., 5% CO2 cell incubator.
as §1, with “mixing. In addition, three negative control wells containing only cells and three blank control wells containing only culture medium (20 μL DMSO diluted 200 times with culture medium being added to six wells) were included.” for “mixing.”
as §2, §3, §4

The test system of assay [3] is CWR22RV1 cells. The assay is described as follows: Compound in combination with androgen receptor inhibitor HC-1119, proliferation of CWR22RV1 cells (CCK-8). The note with it: for IC50: Homo sapiens, CWR22Rv1, 144 h, 6 days, read-out: IC50 for inhibition on the activity of CWR22RV1. On the procedure: • CWR22RV1 cell line (Cell Bank of Chinese Academy of Sciences, TCHu100) • FBS (Gibco, Cat. No. 10099-141) • 0.01M PBS (Biosharp, Cat. No. 162262) • RIPM1640 (Hyclone, Cat. No. 308090.01) • Penicillin-Streptomycin (Hyclone, Cat. No. SV30010) • Cell counting kit-8 (Signalway Antibody, Cat. No. CP002) • DMSO (Sigma, Cat. No. D5879) • Centrifuge Tube, 15 ml (Excell Bio, Cat. No. CS015-0001) • Cell Culture Dish, (Excell Bio, Cat. No. CS016-0128) • 96-well cell culture cluster (Corning, Cat. No. 3599) Experimental Method:
1) CWR22RV1 cells were subcultured in cell culture media, and the cells in good growth condition were seeded in a 96-well plate, 60 μL for each well, thus the number of cells per well was 2000, then the plate was cultured overnight in a 37° C., 5% CO2 cell incubator.
(§5) 2) The drug was prepared with dimethyl sulfoxide (DMSO) as a 10 mM stock solution. Prior to use, the solution was diluted 3 times with DMSO, and then diluted with a 3-fold gradient to obtain 9 concentration gradients. Then, each concentration of the compound was further diluted 200 times with the culture media (to ensure that DMSO concentration in the culture system was 0.1%), 2 repeat wells for each concentration. The diluted solution of each compound (20 μL) was added to the cell culture well (with a final concentration of 10 μM, 3.3 μM, 1.1 μM . . . ); while the solution of HC-1119 was diluted with culture media to the concentrations of 50 μM and 15 μM, respectively, and the diluted solution of HC-1119 was added to the corresponding cell culture well (with a final concentration of 10 μM, 3 μM), then shaken gently for mixing. In addition, three negative control wells containing only cells and three blank control wells containing only culture media (20 μL DMSO diluted 200 times with culture media being added to six wells) were included.
as §2, §3, §4

The test system of assay [4] is Vcap cells. Nature of the assay: Compound in combination with androgen receptor inhibitor HC-1119, proliferation of Vcap cells (CCK-8). The conditions noted are these: for IC50: Homo sapiens, VCaP, 144 h, 6 days, read-out: IC50 for inhibition on the activity of Vcap. As for the experimental part: • Vcap cell line (Cell Bank of Chinese Academy of Sciences, TCHu220) • FBS (Gibco, Cat. No. 10099-141) • 0.01M PBS (Biosharp, Cat. No. 162262) • DMEM HIGH Glucose (Hyclone, Cat. No. SH30243.01) • Penicillin-Streptomycin (Hyclone, Cat. No. SV30010) • Cell counting kit-8 (Signalway Antibody, Cat. No. CP002) • DMSO (Sigma, Cat. No. D5879) • Centrifuge Tube, 15 ml (Excell Bio, Cat. No. CS015-0001) • Cell Culture Dish (Excell Bio, Cat. No. CS016-0128) • 96-well cell culture cluster (Corning, Cat. No. 3599) 2. Experimental Method
1) Vcap cells were subcultured in cell culture media, and the cells in good growth condition were seeded in a 96-well plate, 60 μL for each well, thus the number of cells per well was 10000, then the plate was cultured overnight in a 37° C., 5% CO2 cell incubator.
as §5, with “10 μM, 1 μM), then” for “10 μM, 3 μM), then”
as §2, §3, §4

[5] abbreviates: Homo sapiens, 144 h, 6 days, CCK-8.

On to `Cn1cc(-c2cc(S(C)(=O)=O)ccc2N2CCC3(CC2)CC3(F)F)c2cc[nH]c2c1=O` [Compound 178, 4-(2-(1,1-difluoro-6-aza-spiro[2.5]octan-6-yl)-5-(methylsulfonyl)phenyl)-6-methyl-1H-pyrrolo[2,3-c]pyridin-7(6H)-one], for which the IC50 in the assay with CWR22RV1 cells [1] came to 5 nM; in the assay with MCF-7 cells (Homo sapiens, MCF7, 144 h, 6 days, CCK-8), 29 nM; in the assay on MDA-MB-231 cells (setting [5]) it was 39 nM; in the assay with MDA-MB-453 cells, 720 nM. Further, the “inhibitory action on MCF-7 cells (in words)” value in the assay on MCF-7 cells is “effective inhibitory action”. In the assay on MDA-MB-231 cells, the “inhibitory action on MDA-MB-231 cells (in words)” value is given as “effective inhibitory action”.
For `[2H]C([2H])([2H])n1cc(-c2cc(S(=O)(=O)CC)ccc2N2CCC3(CC2)CC3(F)F)c2cc[nH]c2c1=O` [Compound 231, 4-(2-(1,1-difluoro-6-aza-spiro[2.5]octan-6-yl)-5-(ethylsulfonyl)phenyl)-6-trideuteromethyl-1H-pyrrolo[2,3-c]pyridin-7(6H)-one], the “inhibitory action on Vcap cells (in words)” value with Vcap cells [2] was “effective inhibitory action”. Also, the IC50 with Vcap cells [2] (setting [5]) came out at 3.9 nM; with CWR22RV1 cells [3] (compound alone, CWR22RV1 cells) it was 1.8 nM; in the assay on CWR22RV1 cells [3] (in combination with 3 μM HC-1119, CWR22RV1 cells) it was 0.65 nM; with CWR22RV1 cells [3] (in combination with 10 μM HC-1119, CWR22RV1 cells), 0.51 nM; in the assay with Vcap cells [4] (compound alone, Vcap cells), 3.9 nM; in the assay with Vcap cells [4] (in combination with 1 μM HC-1119, Vcap cells) it was 0.076 nM. Also, in the assay on Vcap cells [4] (in combination with 10 μM HC-1119, Vcap cells), the IC50 was determined as 0.027 nM. Further, in the assay with CWR22RV1 cells [3] (in combination with HC-1119, CWR22RV1 cells), the “effect of combination with HC-1119 on inhibitory action on CWR22RV1 cells (in words)” value is reported as “improve the inhibitory action”. For the same compound, the “effect of combination with HC-1119 on inhibitory action on Vcap cells (in words)” value in the assay on Vcap cells [4] (in combination with HC-1119, Vcap cells) is on record as “improve the inhibitory action”.
